Results: US20200246316A1, “METHODS OF TREATING POST-SURGICAL PAIN WITH A THIAZOLINE ANTI-HYPERALGESIC AGENT” (CERSCI THERAPEUTICS, INC., priority 2019, published 2020)
Entries after “also recorded” stand apart in the source; their conditions may differ. Where a name gives a salt, the structure may show the parent alone. Read-outs that look alike come from different tables or passages of the source.

Legend:
[1] = tested on: rat models of diabetic neuropathy; assay: Rat models of diabetic neuropathy (streptozotocin- and methylglyoxal-induced); assay type: in vivo; conditions: mono-hydrochloride
Description: In various embodiments, Compound 1 is efficacious in in vivo animal models of acute post-incisional hyperalgesia, both prophylactically and palliatively. […] In various embodiments, less than about 1%, 0.8%, 0.6%, 0.4%, 0.2%, 0.1%, 0.08%, 0.06%, 0.04%, 0.02%, or 0.01% of Compound 1 in blood plasma penetrates the BBB.

[2] = Protein binding across species; assay type: in vitro ADME
[3] = tested on: mouse model of severe incision; assay: Mouse model of severe incision; assay type: in vivo; conditions: 10 mg/kg IP daily for 15 days; Days 1, 3, 6, 8, 10, 13, 15 and 21 after incision; FIG. 13; mono-hydrochloride
Description: Two incisional pain models were used to assess Compound 1 effects on hyperalgesia. The first model is referred to as the Brennan model in which, under anesthesia, a 1 cm longitudinal incision to the skin and underlying fascia of a rat hindpaw is made. The second is a variation but is a more invasive procedure in which the skin and muscle are spread apart using forceps which creates a longer-lasting hypersensitivity.
In a mouse model of severe incision (tissue and muscle spread with forceps), animals were at baseline for mechanical thresholds prior to incision and then given a daily dose of Compound 1 (10 mg/kg IP) or vehicle for 15 days.

CYP2D6 = target: T1, CYP2D6 (Homo sapiens, UniProt P10635); assay: CYP inhibition in human liver microsomes; assay type: in vitro ADME
T1 construct: tissue BD Gentest; host or cells: human liver microsomes
Description: (§1) At varying concentrations, Compound 1 was incubated with human liver microsomes (HLM) in the presence of known substrates (see below) of specific CYP isoforms, in order to measure inhibition induced by Compound 1. Microsomes were incubated with known inhibitors (positive controls) of each CYP isoform, in the presence of substrate, in order to measure the metabolic activity of the microsomes.

CYP1A2 = target: T2, CYP1A2 (Homo sapiens, UniProt P05177); assay: CYP inhibition in human liver microsomes; assay type: in vitro ADME
T2 construct: tissue BD Gentest; host or cells: human liver microsomes
T2 sequence (P05177 1-516): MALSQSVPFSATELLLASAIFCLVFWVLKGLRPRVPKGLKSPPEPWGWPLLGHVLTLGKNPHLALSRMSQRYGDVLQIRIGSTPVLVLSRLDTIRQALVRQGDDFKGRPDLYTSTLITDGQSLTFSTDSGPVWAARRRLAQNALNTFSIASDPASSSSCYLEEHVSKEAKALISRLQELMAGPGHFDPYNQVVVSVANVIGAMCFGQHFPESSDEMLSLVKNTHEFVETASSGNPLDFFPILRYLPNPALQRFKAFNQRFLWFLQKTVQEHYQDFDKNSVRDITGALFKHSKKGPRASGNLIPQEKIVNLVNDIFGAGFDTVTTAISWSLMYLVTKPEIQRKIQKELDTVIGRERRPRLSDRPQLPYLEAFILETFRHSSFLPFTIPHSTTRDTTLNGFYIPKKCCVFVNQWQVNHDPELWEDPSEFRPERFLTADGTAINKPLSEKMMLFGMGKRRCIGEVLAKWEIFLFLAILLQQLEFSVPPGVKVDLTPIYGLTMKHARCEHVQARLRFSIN
Description: as §1

CYP2C9 = target: T3, CYP2C9 (Homo sapiens, UniProt P11712); assay: CYP inhibition in human liver microsomes; assay type: in vitro ADME
T3 construct: tissue BD Gentest; host or cells: human liver microsomes
Description: as §1

CYP3A4 = target: T4, CYP3A4 (Homo sapiens, UniProt P08684); assay: CYP inhibition in human liver microsomes; assay type: in vitro ADME
T4 construct: tissue BD Gentest; host or cells: human liver microsomes
Description: as §1

CYP2C19 = target: T5, CYP2C19 (Homo sapiens, UniProt P33261); assay: CYP inhibition in human liver microsomes; assay type: in vitro ADME
T5 construct: tissue BD Gentest; host or cells: human liver microsomes
Description: as §1

[4] = Dog 7-day repeat dose PO study; assay type: in vivo; conditions: plasma, N = 1
Description: The objective was to develop a preliminary toxicity profile of Compound 1 following daily oral (gavage) administration for 7 days to male and female dogs to support dose selection for a 28-day toxicity study in dogs. Doses were selected based on the results of the MTD phase. Dose levels were 0 (Vehicle Control), 200, 350 and 400 mg/kg (1 dog/sex/group). The vehicle was 0.5% aqueous HPMC.
The animals used in this study were returned to the holding colony

[5] = Rat 7-day repeat dose PO study (toxicokinetics, MTD); assay type: in vivo; conditions: 2000 mg/kg
Description: The vehicle was 0.5% HPMC.
Toxicokinetic (TK) results were as follows:

[6] = female, 200 mg/kg, Day 1, 200 mg/kg PO, F
[7] = female, 200 mg/kg, Day 7, 200 mg/kg PO, F
[8] = female, 350 mg/kg, Day 1, 350 mg/kg PO, F
[9] = female, 350 mg/kg, Day 7, 350 mg/kg PO, F
[10] = female, 400 mg/kg, Day 1, 400 mg/kg PO, F
[11] = female, 400 mg/kg, Day 7, 400 mg/kg PO, F
[12] = male, 200 mg/kg, Day 1, 200 mg/kg PO, M
[13] = male, 200 mg/kg, Day 7, 200 mg/kg PO, M
[14] = male, 350 mg/kg, Day 1, 350 mg/kg PO, M
[15] = male, 350 mg/kg, Day 7, 350 mg/kg PO, M
[16] = male, 400 mg/kg, Day 1, 400 mg/kg PO, M
[17] = male, 400 mg/kg, Day 7, 400 mg/kg PO, M
[18] = both, Sprague Dawley (Hsd:SD), rat, in vivo, po

T5 sequence (P33261 whole entry): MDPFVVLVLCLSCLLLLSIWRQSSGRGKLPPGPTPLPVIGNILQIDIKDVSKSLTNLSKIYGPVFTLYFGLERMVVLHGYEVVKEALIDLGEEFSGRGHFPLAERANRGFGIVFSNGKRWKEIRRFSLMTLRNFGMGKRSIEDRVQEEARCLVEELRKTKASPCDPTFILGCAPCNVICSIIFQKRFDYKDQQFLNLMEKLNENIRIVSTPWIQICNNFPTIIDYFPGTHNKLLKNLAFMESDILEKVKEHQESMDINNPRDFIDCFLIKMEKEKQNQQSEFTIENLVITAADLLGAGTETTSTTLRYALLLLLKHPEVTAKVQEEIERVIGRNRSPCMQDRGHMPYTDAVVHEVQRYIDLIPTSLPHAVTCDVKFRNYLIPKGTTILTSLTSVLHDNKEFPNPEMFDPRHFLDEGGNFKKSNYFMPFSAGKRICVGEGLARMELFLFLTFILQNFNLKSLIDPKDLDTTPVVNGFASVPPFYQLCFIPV
T4 sequence (P08684 whole entry): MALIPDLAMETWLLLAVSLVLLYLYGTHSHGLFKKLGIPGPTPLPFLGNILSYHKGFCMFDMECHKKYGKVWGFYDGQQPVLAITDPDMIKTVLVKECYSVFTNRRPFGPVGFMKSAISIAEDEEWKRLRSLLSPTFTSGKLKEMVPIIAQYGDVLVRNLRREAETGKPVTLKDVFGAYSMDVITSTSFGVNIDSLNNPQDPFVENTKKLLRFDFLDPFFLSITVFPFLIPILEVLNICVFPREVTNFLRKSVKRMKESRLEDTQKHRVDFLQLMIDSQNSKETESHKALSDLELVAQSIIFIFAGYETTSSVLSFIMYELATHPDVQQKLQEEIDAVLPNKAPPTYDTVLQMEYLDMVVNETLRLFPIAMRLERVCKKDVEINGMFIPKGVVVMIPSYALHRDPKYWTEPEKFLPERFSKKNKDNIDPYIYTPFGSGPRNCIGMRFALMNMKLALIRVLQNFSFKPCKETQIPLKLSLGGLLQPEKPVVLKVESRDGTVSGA
T3 sequence (P11712 whole entry): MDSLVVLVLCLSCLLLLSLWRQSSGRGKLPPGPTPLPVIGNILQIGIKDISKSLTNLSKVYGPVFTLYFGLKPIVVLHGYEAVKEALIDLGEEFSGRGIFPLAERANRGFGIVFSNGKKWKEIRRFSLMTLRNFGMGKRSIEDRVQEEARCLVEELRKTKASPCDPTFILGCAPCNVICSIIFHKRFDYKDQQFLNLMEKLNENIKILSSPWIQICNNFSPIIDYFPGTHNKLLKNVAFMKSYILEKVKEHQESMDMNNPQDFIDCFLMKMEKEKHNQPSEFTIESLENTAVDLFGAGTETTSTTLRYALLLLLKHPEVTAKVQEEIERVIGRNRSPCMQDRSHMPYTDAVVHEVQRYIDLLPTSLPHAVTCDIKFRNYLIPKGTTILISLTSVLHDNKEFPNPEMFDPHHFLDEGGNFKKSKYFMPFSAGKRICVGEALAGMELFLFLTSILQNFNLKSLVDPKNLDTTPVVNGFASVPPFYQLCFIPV
T1 sequence (P10635 whole entry): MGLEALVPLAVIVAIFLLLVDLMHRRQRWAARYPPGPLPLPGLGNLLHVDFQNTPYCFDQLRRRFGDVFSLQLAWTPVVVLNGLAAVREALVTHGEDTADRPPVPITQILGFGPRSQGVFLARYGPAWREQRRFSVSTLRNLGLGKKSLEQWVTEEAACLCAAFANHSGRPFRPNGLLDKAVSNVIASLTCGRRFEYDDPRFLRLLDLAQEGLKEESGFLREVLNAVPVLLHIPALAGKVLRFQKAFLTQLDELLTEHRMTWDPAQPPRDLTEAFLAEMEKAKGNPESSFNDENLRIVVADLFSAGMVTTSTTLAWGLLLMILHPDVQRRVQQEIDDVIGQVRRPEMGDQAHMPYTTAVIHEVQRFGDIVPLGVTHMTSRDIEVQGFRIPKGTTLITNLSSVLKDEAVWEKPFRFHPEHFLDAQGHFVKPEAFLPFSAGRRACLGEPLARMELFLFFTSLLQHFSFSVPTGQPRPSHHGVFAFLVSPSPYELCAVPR

SMILES: CC1(C)SC(Nc2ccccc2O)=N[C@@H]1C(=O)O [Compound 1, (R)-2-(2-hydroxyphenylamino)-5,5-dimethyl-4,5-dihydrothiazole-4-carboxylic acid mono-hydrochloride]
- allodynia in models of diabetic neuropathy [1]: alleviates allodynia; also recorded: reverses allodynia
- protein binding [2]: moderately protein-bound
- hyperalgesia [3]: protected from hyperalgesia; also recorded: did not experience hyperalgesia
- CYP inhibition (CYP2D6; CYP2D6, up to 100 μM): did not inhibit
- IC50 (CYP2D6; CYP2D6, read-out: IC50): > 100 µM
- IC50 (CYP2D6; human liver microsomes, known substrate of the CYP isoform, read-out: IC50 (μM) CYP 2D6): > 100 µM
- CYP inhibition (CYP1A2; CYP1A2, up to 100 μM): did not inhibit
- IC50 (CYP1A2; CYP1A2, read-out: IC50): > 100 µM
- IC50 (CYP1A2; human liver microsomes, known substrate of the CYP isoform, read-out: IC50 (μM) CYP 1A2): > 100 µM
- CYP inhibition (CYP2C9; CYP2C9, up to 100 μM): did not inhibit
- IC50 (CYP2C9; CYP2C9, read-out: IC50): > 100 µM
- IC50 (CYP2C9; human liver microsomes, known substrate of the CYP isoform, read-out: IC50 (μM) CYP 2C9): > 100 µM
- CYP inhibition (CYP3A4; CYP3A4, up to 100 μM): did not inhibit
- IC50 (CYP3A4; CYP3A4, read-out: IC50): > 100 µM
- IC50 (CYP3A4; human liver microsomes, known substrate of the CYP isoform, read-out: IC50 (μM) CYP 3A4): > 100 µM
- CYP inhibition (CYP2C19; CYP2C19, up to 100 μM): did not inhibit
- IC50 (CYP2C19; CYP2C19, read-out: IC50): > 100 µM
- IC50 (CYP2C19; human liver microsomes, known substrate of the CYP isoform, read-out: IC50 (μM) CYP 2C19): > 100 µM
- AUC(0-t) [4, 6]: 582 µg·h/mL
- Cmax [4, 6]: 152 µg/mL
- half-life [4, 6]: 1.3 h
- AUC(0-t) [4, 7]: 411 µg·h/mL
- Cmax [4, 7]: 103 µg/mL
- half-life [4, 7]: 1.5 h
- AUC(0-t) [4, 8]: 834 µg·h/mL
- Cmax [4, 8]: 228 µg/mL
- half-life [4, 8]: 1.2 h
- AUC(0-t) [4, 9]: 738 µg·h/mL
- Cmax [4, 9]: 207 µg/mL
- Tmax [4, 9]: 0.5 h
- half-life [4, 9]: 2.4 h
- AUC(0-t) [4, 10]: 464 µg·h/mL
- Cmax [4, 10]: 109 µg/mL
- Tmax [4, 10]: 1 h
- AUC(0-t) [4, 11]: 751 µg·h/mL
- Cmax [4, 11]: 183 µg/mL
- half-life [4, 11]: 2.5 h
- AUC(0-t) [4, 12]: 538 µg·h/mL
- Cmax [4, 12]: 150 µg/mL
- half-life [4, 12]: 1.1 h
- AUC(0-t) [4, 13]: 540 µg·h/mL
- Tmax [4, 13]: 1 h
- half-life [4, 13]: 1.4 h
- AUC(0-t) [4, 14]: 613 µg·h/mL
- Cmax [4, 14]: 176 µg/mL
- half-life [4, 14]: 1.1 h
- AUC(0-t) [4, 15]: 591 µg·h/mL
- Cmax [4, 15]: 184 µg/mL
- Tmax [4, 15]: 1 h
- half-life [4, 15]: 1.2 h
- AUC(0-t) [4, 16]: 657 µg·h/mL
- Cmax [4, 16]: 167 µg/mL
- half-life [4, 16]: 1.2 h
- AUC(0-t) [4, 17]: 210 µg·h/mL
- Cmax [4, 17]: 69 µg/mL
- Tmax [4, 17]: 1 h
- half-life [4, 17]: 1.3 h
- Cmax ([5]; both sexes, Sprague Dawley (Hsd:SD), rat, in vivo, po): 121 µg/mL
- AUC(0-t) ([5]; both sexes, Sprague Dawley (Hsd:SD), rat, in vivo, po, AUC0-24 (mean)): 1370 µg·h/mL
- Cmax ([5]; both sexes, Sprague Dawley (Hsd:SD), rat, in vivo, po, Seventh Daily Dose, 2000 mg/kg PO, read-out: Cmax (mean)): 119 µg/mL
- half-life ([5]; both sexes, Sprague Dawley (Hsd:SD), rat, in vivo, po, T1/2 (mean)): 3.9 h
- Tmax ([5]; both sexes, Sprague Dawley (Hsd:SD), rat, in vivo, po, Tmax (mean)): 2 h
- MTD at 7 days ([5]; both sexes, Sprague-Dawley (Hsd:SD), rat, in vivo, oral gavage 7 days): 2000 mg/kg
- AUC0-24 (mean) [5, 18]: 1609 µg·h/mL
- T1/2 (mean) [5, 18]: 6.7 h
- Tmax (mean) [5, 18]: 1 h
- tolerability ([5]; female rats, oral gavage 7 days): tolerated
